Experimental data reported in publication PMC4054954 (Brain research, 2011).
“Also recorded” adds a separate entry of the source.

Test system: HT-22 cells
Test: HT-22 cell-based glutamate cytoprotection assay
Design: species or system murine
Details: for cytoprotection / neuroprotection of HT-22 cells (in words): glutamate-induced oxidative stress cell death

| SMILES | cytoprotection / neuroprotection of HT-22 cells (in words) | EC50 (Mus musculus, HT-22, read-out: cytoprotective EC50) [µM] |
| --- | --- | --- |
| O=C(OCCN1CCOCC1)C1(c2ccccc2)CCCCC1 [PRE-084] | not cytoprotective |  |
| CC(C)=CCN1CC[C@]2(C)c3cc(O)ccc3C[C@H]1[C@H]2C [(+)-pentazocine] | not to be neuroprotective; also recorded: not cytoprotective | > 4 |
| O=C(CCCN1CCC(O)(c2ccc(Cl)cc2)CC1)c1ccc(F)cc1 [haloperidol] | potent neuroprotective agent; also recorded: protective |  |
